Assay results from publication PMC10350920, “Development of a 2,4-Diaminothiazole Series for the Treatment of Human African Trypanosomiasis Highlights the Importance of Static–Cidal Screening of Analogues” (Journal of Medicinal Chemistry, 2023).
Values joined by “and” are separate entries in the source; they are usually repeats but may differ in a detail not shown here. Identical values can stand only once. “Also recorded” adds a separate entry of the source. Like-named read-outs stand apart in the source and are kept apart here.

What was measured:
[1] = Mouse brain penetration (brain:blood ratio); assay type: in vivo, female NMRI mice; conditions: mice, bolus of test compound, total compound
Description: Medicines for HAT are required to treat both acute and chronic infections, where parasites pass through the blood/brain barrier and enter the CNS. With this in mind, mice were dosed with an […] bolus of our test compounds, and compound concentrations in blood and brain were determined by UPLC–MS/MS. […] The brain fraction unbound was 0.0063 for 16 and 0.0313 for 38. Brain penetration of the series as a whole tracked with the generally accepted rules of CNS penetration, with a lower topological PSA (TPSA) and molecular weight compounds having an increased B/B ratio (Table S2 and Figure S1). However, the link between log P and the B/B ratio was slightly less convincing. […] This difference could be explained by 18 being a substrate for the P-glycoprotein efflux pump.
Each compound was dosed as an IV bolus at 10 mg kg^–1 dissolved in 15% solutol/Milli-Q (dose volume 10 mL kg^–1) to female NMRI mice (n = 3). At 30 min following the IV bolus of the test compound, mice (n = 3/time point) were placed under terminal anesthesia with isoflurane. A blood sample was taken by cardiac puncture and added to two volumes of distilled water, and the brain was removed. […] For each mouse at each time point, the concentration in the brain (ng g^–1) was divided by the concentration in blood (ng mL^–1) to give a brain: blood ratio.

[2] = Pharmacokinetics in NMRI mice; assay type: in vivo, female NMRI mice
Description: To determine compound exposure, compounds were dosed by gavage (16, 38) at 10 mg kg^–1 free base (16, 38), dose volume; and 5 mL kg^–1 (16, 38), dose vehicle (10% DMSO/40% PEG400/50% Milli-Q) to female NMRI mice, n = 3/dose level (16), or Sprague Dawley rats (38). Blood samples were taken from each mouse/rat at 5, 15, and 30 min, 1, 2, 4, 6, and 8 h postdose and mixed with two volumes of distilled water. After suitable sample preparation, the concentration of the test compound in blood was determined by UPLC–MS/MS using a Quattro Premier XE (Waters, USA). Pharmacokinetic parameters were derived from the mean blood concentration–time curve using PKsolutions software v 2.0 (Summit Research Services, USA).

[3] = Equilibrium dialysis, free fraction in brain; assay type: in vitro ADME, mouse
Description: In brief, a 96-well equilibrium dialysis apparatus was used to determine the free fraction in plasma and the brain (HT Dialysis LLC, Gales Ferry, CT). Isotonic buffer was prepared using 8.69 g of Na2HPO4, 1.9 g of KH2PO4, and 4.11 g of NaCl dissolved in 1 L of Milli-Q water, and the pH was adjusted to 7.4. Artificial CSF was prepared using 3.652 g of NaCl, 93.2 mg of KCl, 119.96 mg of MgCl2, 92.61 mg of CaCl2, and 268 mg of Na2HPO4 heptahydrate dissolved in 0.5 L of water, and the pH was adjusted to 7.4. Membranes [12–14 (plasma) or 6–9 (brain) kDA cutoff] were conditioned in deionized water for 60 min, followed by conditioning in 80:20 deionized water/ethanol for 20 min, and then rinsed in isotonic buffer (plasma) or […] (brain) before use. Female CD1 mouse plasma was defrosted and centrifuged for 10 min at 3000 rpm (Allegra X12-R, Beckman Coulter, USA). The control mouse brain was homogenized in two volumes of artificial CSF in a Covaris S2 acoustic homogenizer. […] All samples were analyzed by means of UPLC/MS/MS on a Quattro Premier XE or Micro TQs mass spectrometer (Waters Corporation, USA). The unbound fraction was determined as the ratio of the peak area in the buffer to that in the matrix.

[4] = test system: BSF T. b. brucei “single marker” S427; assay: Drug sensitivity assay with bloodstream-form T. brucei; assay type: cell-based; conditions: for EC50: mean values, number of replicates in parentheses
Description: (§1) Drug sensitivity assays with BSF T. b. brucei “single marker” S427 and human MRC-5 fibroblasts were conducted as previously described.[43]

[5] = Mouse liver microsomal intrinsic clearance; assay type: in vitro ADME
Method in brief: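 Compound (0.5 μM) incubated with liver microsomes (0.5 mg/mL, 50 mM potassium phosphate pH 7.4) and excess NADPH; samples quenched at 0–30 min and analysed by UPLC–MS/MS. Rate constant from exponential decay of compound/internal standard ratio; CLint scaled with 52.5 mg protein/g liver.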

[6] = test system: human MRC-5 fibroblasts; assay: Mammalian cell counter screen (MRC-5); assay type: cell-based; conditions: for SI: selectivity index (EC50 MRC5/EC50 T. brucei)
Description: as §1

[7] = test system: T. b. brucei S427; assay: Stage 1 efficacy study in NMRI mice; assay type: in vivo
Description: Stage 1 efficacy experiments using T. b. brucei S427 were performed as described,[44] with minor modifications. In brief, male SD rats (38) or female HRN (16) and NMRI (16, 38) mice (3–5 per group) were injected intraperitoneally with 1 × 10^4 BSFs of T. brucei. These BSFs come from a stock of cryopreserved stabilates containing 10% glycerol. The stabilate was suspended in 20 mM Hanks’ balanced salt solution with glucose to obtain a trypanosome concentration of 5 × 10^4 cells mL^–1. Each mouse was injected with 0.2 mL. […] Dose concentrations were 1.25, 2.5, 5, 7.5, 10, 30, and 50 mg kg^–1 free base (16) or 100 mg kg^–1 free base (38). The doses were prepared fresh daily, using 5% DMSO/40% PEG400/55% Milli-Q (16) or 15% solutol/85% Milli-Q (38), and the dose volume was 10 mL kg^–1. One group of three mice was an untreated control group.

[8] = 100 mg kg^–1 IP, assuming linearity of exposure

## CC(C)(O)CC(=O)c1sc(Nc2ccc(F)c(F)c2)nc1N [Compound 38, 1-(4-Amino-2-((3,4-difluorophenyl)amino)thiazol-5-yl)-3-hydroxy-3-methylbutan-1-one]
[1]; female, NMRI, mouse, brain and blood, 10 mg kg^–1, read-out: brain/blood (B/B) ratio
  Kp at 30 min: 1.4
[2]; [8]
  free Cmax in blood, extrapolated: 16 µM
  free Cmax, extrapolated: 5200 ng mL^–1
[2]; NMRI mice, IP, 50 mg kg^–1
  Cmax (total blood): 18,000 ng mL^–1
[2]; female, NMRI, mouse, whole blood, mice, IP, 50 mg kg^–1, read-out: total blood Cmax
  Cmax: 55 µM
[2]; female, mouse, whole blood, NMRI mice, IP, 50 mg kg^–1, read-out: AUC (converted)
  AUC: 31700 ng·h/mL
[2]; female, mouse, whole blood, NMRI mice, IP, 50 mg kg^–1, read-out: Tmax
  Tmax: 30 min
[2]; mice, 100 mg kg^–1 IP
  free Cmax in the brain, extrapolated: 4.6 µM
[3]; mouse, brain homogenate, pH 7.4, read-out: brain free fraction (Fu, fraction unbound)
  fraction unbound at 5 h, 10 μg mL^–1: 0.0313
[4]; Trypanosoma brucei, T. brucei
  EC90: 0.131 µg/mL and 400 nM
[4]; Trypanosoma brucei
  EC50: 180 nM
[5]
  CLint (mouse): 2.2 mL·min/g
[6]
  SI: 256
[7]; bid 4 days 100 mg kg^–1
  stage 1 efficacy, parasitemia: no reduction in parasitemia

## (4-Amino-2-(cyclohexylamino)thiazol-5-yl)(2,6-difluorophenyl)methanone [Compound 16]
[1]
  brain/blood (B/B) ratio: 3.3
[2]; NMRI mice, IP, 10 mg kg^–1
  AUC: 66,000 ng mL h^–1
  Tmax: 15 min
[2]; NMRI mice, PO, 10 mg kg^–1
  AUC: 5700 ng mL h^–1
  Cmax: 33 ng mL^–1
  Tmax: 30 min
[3]; brain
  brain free fraction (Fu, fraction unbound): 0.0063
[4]
  EC50: 110 nM
[5]
  CLint (mouse): 15 mL·min/g
[6]; mean values, number of replicates in parentheses, read-out: MRC-5 EC50
  EC50: 1200 nM
[6]
  SI: 11
[7]; IP 10 mg kg^–1 twice daily for 4 days
  stage 1 efficacy (cure = no parasitemia for 30 days): complete cure; also recorded: efficacious
